Laboratory results as given in paper PMC12136037, “Type II kinase inhibitors that target Parkinson’s disease–associated LRRK2” (Science Advances, 2025).
Like-named read-outs stand apart in the source and are kept apart here.

How the values were obtained:
Experiment in all cases: DSF 100 kinase selectivity screen;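 also: compound tested at 20 µM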
Assay type in all cases: binding
[1] = biological target: T1, ~100 representative kinases (Homo sapiens, UniProt O14976); settings: protein GAK; average of three replicates
T1 construct: Recombinant protein kinase domains with a concentration of 2 μM
T1 sequence (O14976 1-1311): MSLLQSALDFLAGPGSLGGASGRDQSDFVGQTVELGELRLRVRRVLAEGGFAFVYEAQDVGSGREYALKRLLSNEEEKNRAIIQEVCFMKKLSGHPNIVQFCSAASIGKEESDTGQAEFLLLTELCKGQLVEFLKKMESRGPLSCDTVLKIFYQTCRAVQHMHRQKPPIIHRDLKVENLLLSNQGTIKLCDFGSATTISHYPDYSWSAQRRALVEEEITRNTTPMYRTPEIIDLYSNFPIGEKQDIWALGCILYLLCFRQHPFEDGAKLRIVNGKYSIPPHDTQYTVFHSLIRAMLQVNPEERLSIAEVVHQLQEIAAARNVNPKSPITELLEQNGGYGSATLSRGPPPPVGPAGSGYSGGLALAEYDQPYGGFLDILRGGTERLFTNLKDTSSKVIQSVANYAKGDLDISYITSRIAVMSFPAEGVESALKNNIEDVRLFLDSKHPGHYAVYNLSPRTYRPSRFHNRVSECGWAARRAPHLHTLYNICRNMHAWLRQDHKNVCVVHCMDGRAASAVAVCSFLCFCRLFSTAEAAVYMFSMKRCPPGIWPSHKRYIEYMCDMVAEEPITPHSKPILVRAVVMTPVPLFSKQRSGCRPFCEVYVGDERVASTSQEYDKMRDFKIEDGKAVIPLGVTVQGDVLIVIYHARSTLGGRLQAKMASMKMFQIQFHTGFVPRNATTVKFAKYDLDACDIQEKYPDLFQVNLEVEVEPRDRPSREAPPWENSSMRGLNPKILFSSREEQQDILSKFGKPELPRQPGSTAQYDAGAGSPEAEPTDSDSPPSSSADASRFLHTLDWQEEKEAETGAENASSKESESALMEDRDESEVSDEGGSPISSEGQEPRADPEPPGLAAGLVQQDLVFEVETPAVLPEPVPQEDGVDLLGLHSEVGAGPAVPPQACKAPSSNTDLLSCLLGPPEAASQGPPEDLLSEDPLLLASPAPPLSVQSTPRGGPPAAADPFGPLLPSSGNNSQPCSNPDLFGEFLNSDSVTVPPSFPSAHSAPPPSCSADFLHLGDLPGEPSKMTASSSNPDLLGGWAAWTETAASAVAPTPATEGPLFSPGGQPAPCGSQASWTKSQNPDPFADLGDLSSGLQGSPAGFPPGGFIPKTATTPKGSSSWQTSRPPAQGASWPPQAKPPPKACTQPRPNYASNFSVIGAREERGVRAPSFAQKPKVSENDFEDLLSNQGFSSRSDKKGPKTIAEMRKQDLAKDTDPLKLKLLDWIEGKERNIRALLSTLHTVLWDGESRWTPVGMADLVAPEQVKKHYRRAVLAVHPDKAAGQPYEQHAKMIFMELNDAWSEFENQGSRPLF
Summary of the method: (§1)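 Each kinase domain, at 2 μM, is mixed with 20 μM test compound and SYPRO Orange in Hepes (20 mM, pH 7.5) with 500 mM NaCl. Temperature is then raised at 3°C/min and fluorescence-monitored unfolding yields the melting temperature change, ΔTm in degrees Celsius.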

[2] = biological target: T2, ~100 representative kinases (Homo sapiens, UniProt Q96RR4); settings: Protein CAMKK2; average of three replicates
T2 construct: Recombinant protein kinase domains with a concentration of 2 μM
Summary of the method: as §1

[3] = biological target: T3, ~100 representative kinases (Homo sapiens, UniProt Q9H2X6); settings: protein HIPK2; average of three replicates
T3 construct: Recombinant protein kinase domains with a concentration of 2 μM
Summary of the method: as §1

[4] = biological target: T4, ~100 representative kinases (Homo sapiens, UniProt Q99640); settings: protein PKMYT1; average of three replicates
T4 construct: Recombinant protein kinase domains with a concentration of 2 μM
T4 sequence (Q99640 1-499): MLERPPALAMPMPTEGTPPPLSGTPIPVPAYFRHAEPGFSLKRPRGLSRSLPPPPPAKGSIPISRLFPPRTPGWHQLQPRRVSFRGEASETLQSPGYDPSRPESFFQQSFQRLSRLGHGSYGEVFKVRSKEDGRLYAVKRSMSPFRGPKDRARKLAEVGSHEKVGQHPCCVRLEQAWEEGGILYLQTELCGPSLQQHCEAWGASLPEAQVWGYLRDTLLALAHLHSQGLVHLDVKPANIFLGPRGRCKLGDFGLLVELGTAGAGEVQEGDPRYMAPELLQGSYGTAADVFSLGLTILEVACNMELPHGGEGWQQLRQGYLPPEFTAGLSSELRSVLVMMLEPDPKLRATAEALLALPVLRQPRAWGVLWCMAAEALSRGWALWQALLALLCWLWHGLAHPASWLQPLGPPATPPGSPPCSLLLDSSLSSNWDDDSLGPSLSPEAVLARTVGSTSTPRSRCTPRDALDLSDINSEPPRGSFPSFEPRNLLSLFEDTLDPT
Summary of the method: as §1

[5] = biological target: T5, ~100 representative kinases (Homo sapiens, UniProt P49137); settings: protein MAPKAPK2; average of three replicates
T5 construct: Recombinant protein kinase domains with a concentration of 2 μM
Summary of the method: as §1

[6] = biological target: T6, ~100 representative kinases (Homo sapiens, UniProt P00519)
T6 construct: Recombinant protein kinase domains with a concentration of 2 μM
Summary of the method: as §1

[7] = biological target: T7, ~100 representative kinases (Homo sapiens, UniProt P48730); settings: Protein CSNK1D; average of three replicates
T7 construct: Recombinant protein kinase domains with a concentration of 2 μM
Summary of the method: as §1

[8] = Protein ABL1, average of three replicates

T5 sequence (P49137 whole entry, the tested form may be a part): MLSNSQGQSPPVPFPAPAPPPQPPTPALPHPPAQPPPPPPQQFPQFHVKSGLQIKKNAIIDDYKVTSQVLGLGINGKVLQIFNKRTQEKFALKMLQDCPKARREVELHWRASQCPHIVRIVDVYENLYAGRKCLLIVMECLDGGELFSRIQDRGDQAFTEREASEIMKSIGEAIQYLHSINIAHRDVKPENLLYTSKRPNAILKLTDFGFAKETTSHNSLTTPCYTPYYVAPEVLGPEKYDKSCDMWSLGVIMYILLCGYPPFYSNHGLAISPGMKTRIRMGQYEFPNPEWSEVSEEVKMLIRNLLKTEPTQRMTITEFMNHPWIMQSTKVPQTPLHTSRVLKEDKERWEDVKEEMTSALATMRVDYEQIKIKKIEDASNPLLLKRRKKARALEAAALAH
T7 sequence (P48730 whole entry, the tested form may be a part): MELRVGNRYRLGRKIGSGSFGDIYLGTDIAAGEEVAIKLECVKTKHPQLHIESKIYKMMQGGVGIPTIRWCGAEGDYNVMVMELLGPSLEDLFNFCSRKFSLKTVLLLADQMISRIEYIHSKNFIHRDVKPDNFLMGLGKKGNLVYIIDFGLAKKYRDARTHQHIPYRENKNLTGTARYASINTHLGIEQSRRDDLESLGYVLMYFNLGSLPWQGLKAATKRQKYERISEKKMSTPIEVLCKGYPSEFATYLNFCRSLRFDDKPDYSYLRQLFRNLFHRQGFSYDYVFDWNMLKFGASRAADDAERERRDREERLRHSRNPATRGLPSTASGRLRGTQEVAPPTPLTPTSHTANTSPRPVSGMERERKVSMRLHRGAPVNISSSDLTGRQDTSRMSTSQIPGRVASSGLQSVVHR
T6 sequence (P00519 whole entry, the tested form may be a part): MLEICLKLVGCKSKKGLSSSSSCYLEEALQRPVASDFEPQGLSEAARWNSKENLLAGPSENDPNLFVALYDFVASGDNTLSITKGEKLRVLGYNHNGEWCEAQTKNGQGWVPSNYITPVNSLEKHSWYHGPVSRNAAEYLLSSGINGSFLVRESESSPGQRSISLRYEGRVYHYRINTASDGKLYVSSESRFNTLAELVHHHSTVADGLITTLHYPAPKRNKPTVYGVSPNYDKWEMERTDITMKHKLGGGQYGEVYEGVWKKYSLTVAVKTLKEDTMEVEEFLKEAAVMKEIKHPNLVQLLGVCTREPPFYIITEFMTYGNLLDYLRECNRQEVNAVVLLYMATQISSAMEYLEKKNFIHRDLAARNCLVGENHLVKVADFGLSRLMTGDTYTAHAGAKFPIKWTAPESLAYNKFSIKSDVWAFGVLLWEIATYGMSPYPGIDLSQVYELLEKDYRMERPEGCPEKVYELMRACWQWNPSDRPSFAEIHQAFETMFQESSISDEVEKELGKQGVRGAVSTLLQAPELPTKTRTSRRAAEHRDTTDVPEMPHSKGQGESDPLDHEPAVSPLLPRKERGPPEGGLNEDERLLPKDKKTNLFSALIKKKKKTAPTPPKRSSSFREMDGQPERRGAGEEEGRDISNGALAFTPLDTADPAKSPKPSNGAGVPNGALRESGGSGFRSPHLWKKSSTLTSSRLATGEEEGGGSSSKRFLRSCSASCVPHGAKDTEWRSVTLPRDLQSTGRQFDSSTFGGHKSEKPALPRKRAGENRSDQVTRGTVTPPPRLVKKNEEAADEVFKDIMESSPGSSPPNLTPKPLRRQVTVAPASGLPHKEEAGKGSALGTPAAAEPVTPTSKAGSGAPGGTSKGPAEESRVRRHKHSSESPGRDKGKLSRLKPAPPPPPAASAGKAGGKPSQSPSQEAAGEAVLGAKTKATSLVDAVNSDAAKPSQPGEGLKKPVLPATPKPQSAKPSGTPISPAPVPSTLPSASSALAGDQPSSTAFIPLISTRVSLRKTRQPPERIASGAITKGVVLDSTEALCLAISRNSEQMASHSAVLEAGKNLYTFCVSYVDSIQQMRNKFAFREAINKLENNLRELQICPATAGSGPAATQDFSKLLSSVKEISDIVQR
T3 sequence (Q9H2X6 whole entry, the tested form may be a part): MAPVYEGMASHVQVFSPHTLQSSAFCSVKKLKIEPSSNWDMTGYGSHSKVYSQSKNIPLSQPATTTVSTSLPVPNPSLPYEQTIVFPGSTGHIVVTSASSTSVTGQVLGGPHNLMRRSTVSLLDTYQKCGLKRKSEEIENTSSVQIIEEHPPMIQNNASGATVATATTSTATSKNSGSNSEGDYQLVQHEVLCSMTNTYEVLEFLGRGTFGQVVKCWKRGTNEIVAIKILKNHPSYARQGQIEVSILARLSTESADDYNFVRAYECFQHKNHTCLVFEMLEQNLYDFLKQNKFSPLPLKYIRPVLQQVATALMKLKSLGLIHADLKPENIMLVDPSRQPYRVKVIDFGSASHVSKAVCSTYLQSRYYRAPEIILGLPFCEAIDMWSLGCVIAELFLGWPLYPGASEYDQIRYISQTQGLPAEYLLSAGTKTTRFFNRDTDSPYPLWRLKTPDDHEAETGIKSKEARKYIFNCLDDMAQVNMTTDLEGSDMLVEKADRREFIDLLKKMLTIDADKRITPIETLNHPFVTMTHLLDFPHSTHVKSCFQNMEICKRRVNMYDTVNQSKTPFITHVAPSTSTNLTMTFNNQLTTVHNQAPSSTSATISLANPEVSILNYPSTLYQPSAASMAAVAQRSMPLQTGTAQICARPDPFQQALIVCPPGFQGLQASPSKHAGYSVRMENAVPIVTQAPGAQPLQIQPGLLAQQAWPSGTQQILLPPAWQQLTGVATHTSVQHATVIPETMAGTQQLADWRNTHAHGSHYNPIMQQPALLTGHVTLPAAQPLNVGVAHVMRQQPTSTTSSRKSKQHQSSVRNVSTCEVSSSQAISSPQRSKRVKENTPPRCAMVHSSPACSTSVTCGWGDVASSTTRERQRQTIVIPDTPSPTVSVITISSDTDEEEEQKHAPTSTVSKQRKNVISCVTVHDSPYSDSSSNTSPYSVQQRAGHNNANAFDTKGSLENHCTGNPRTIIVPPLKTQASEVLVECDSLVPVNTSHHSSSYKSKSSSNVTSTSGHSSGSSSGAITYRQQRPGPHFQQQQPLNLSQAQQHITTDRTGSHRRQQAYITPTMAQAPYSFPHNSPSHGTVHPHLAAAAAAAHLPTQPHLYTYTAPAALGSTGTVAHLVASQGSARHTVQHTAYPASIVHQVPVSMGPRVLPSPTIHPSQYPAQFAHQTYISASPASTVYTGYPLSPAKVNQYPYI
T2 sequence (Q96RR4 whole entry, the tested form may be a part): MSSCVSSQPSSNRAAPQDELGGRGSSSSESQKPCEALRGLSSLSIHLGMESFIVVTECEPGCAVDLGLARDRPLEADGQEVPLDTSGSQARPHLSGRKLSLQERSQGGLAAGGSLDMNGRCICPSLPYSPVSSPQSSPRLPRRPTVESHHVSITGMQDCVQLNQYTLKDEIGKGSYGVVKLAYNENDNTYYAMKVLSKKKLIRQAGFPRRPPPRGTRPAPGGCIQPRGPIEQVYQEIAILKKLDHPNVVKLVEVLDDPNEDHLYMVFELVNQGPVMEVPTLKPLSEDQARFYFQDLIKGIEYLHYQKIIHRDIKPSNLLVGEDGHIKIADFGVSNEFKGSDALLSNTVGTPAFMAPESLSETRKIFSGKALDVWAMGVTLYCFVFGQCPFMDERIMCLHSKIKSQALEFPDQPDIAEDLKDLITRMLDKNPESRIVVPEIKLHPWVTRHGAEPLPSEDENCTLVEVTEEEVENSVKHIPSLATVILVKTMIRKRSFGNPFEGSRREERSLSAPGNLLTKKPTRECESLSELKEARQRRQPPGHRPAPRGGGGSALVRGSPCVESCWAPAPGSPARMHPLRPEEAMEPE

Structure (SMILES)	dTm [1]	dTm [2]	dTm [3]	dTm [4]	dTm [5]	dTm [6, 8]	dTm [7]	dTm [6]
CC(C)(C)c1cc(NC(=O)Nc2cccc(-c3c[nH]c4ncnc(N5CCOCC5)c34)c2)n(-c2ccc3ncccc3c2)n1 [Compound 28]	7.34 K	12.27 K	9.47 K	0.83 K	0.51 K	7.77 K	1.22 K	
CCSc1nc(NC)c2c(-c3cccc(NC(=O)Nc4cc(C(C)(C)C)nn4-c4ccc(C)cc4)c3)c[nH]c2n1 [Compound 32]	-1.07 K	2.43 K	0.31 K	0.22 K	0.11 K	2.07 K	0.85 K	
COc1cc2c(Oc3ccc(NC(=O)C4(C(=O)Nc5ccc(F)cc5)CC4)cc3F)ccnc2cc1OCCCN1CCOCC1 [Foretinib, reference compound]	2.91 K	10.75 K	4.61 K	0.92 K	0.33 K	13.44 K	0.91 K	
CCNc1nc(Nc2cc(F)c(C(=O)N3CCOCC3)cc2OC)ncc1C(F)(F)F [GNE-7915]	0.77 K	1.38 K	0.82 K	-0.40 K	-0.23 K	0.74 K	1.81 K	
Cc1ccc(C(=O)Nc2ccc(CN3CCN(C)CC3)c(C(F)(F)F)c2)cc1C#Cc1cnc2[nH]ncc2c1 [GZD-824, reference compound]	11.23 K	8.63 K	1.22 K	0.44 K	-0.24 K		1.29 K	30.43 K
C[C@@H]1CN(c2cc(-c3n[nH]c4ccc(OC5(C)CC5)cc34)ncn2)C[C@H](C)O1 [MLi2]	0.31 K	8.80 K	0.22 K	-0.55 K	-0.23 K	0.50 K	0.66 K	
Cn1cc(-c2c[nH]c3ncnc(N4CCOCC4)c23)cc1C#N [PFE-360]	-0.50 K	5.91 K	0.25 K	0.19 K	0.0427 K	3.25 K	0.63 K	

Now from value to compound, other results behind:

dTm [1]	dTm [2]	dTm [3]	dTm [4]	dTm [5]	dTm [6, 8]	dTm [7]	Structure (SMILES)	dTm [6]
1.48 K	10.45 K	11.54 K	0.44 K	-0.28 K	2.29 K	3.49 K	Cc1cc(NC(=O)C2(C(=O)Nc3cccc(-c4c[nH]c5ncnc(N6CCOCC6)c45)c3)CC2)ccc1F [Compound 20]	
0.54 K	8.27 K	9.11 K	-0.64 K	-0.29 K	1.21 K	3.13 K	COc1cc(NC(=O)C2(C(=O)Nc3cccc(-c4c[nH]c5ncnc(N6CCOCC6)c45)c3)CC2)ccc1F [Compound 21]	
-2.23 K	9.68 K	3.44 K	-2.18 K	-0.67 K	2.30 K	-2.04 K	CC(C)(C)c1cccc(NC(=O)C2(C(=O)Nc3cccc(-c4c[nH]c5ncnc(N6CCOCC6)c45)c3)CC2)c1 [Compound 22]	
0.67 K	5.31 K	6.30 K	-0.59 K	-0.35 K	1.35 K	1.02 K	O=C(Nc1cccc(-c2c[nH]c3ncnc(N4CCOCC4)c23)c1)C1(C(=O)Nc2ccc(F)cc2F)CC1 [Compound 23]	
0.84 K	6.43 K	4.12 K	-0.26 K	-0.55 K	1.15 K	1.47 K	Cc1cc(F)ccc1NC(=O)C1(C(=O)Nc2cccc(-c3c[nH]c4ncnc(N5CCOCC5)c34)c2)CC1 [Compound 24]	
0.71 K	6.31 K	1.71 K	-1.04 K	0.00186 K	1.76 K	-0.29 K	O=C(Nc1cccc(-c2c[nH]c3ncnc(N4CCOCC4)c23)c1)C1(C(=O)Nc2cc(Br)c(F)cc2F)CC1 [Compound 25]	
0.91 K	5.53 K	2.07 K	-0.69 K	-1.06 K	1.83 K	0.95 K	O=C(Nc1cccc(-c2c[nH]c3ncnc(N4CCOCC4)c23)c1)C1(C(=O)Nc2ccc(F)c(Br)c2F)CC1 [Compound 26]	
-0.90 K	3.64 K	1.50 K	-2.72 K	0.07 K	1.02 K	-0.55 K	O=C(Nc1cc(F)cc(Br)c1)C1(C(=O)Nc2cccc(-c3c[nH]c4ncnc(N5CCOCC5)c34)c2)CC1 [Compound 27]	
